This note sets out measurements from a melting point compilation (Tetko et al.; mined from patent text by program, amines drawn as free bases though some values may be those of a salt).

By melting point is commonly meant the temperature of the solid-liquid transition. `CCCCN(CCCC)c1ccc(C=Cc2cc(C)c(C=CC3=C(C#N)C(=C(C#N)C#N)OC3(C)C)cc2C)c(OC)c1` returned a melting point of 242 to 244 °C. For `COC(=O)c1cc(NC(=O)OC(C)(C)C)c([N+](=O)[O-])cc1I`, the melting point worked out at 126 °C.

In turn, `Cc1cc(O)c(C(C)(C)C)cc1C=O` returned a melting point of 168 to 170 °C.

Molecule `CCCOc1ccc2c(c1)[C@@H](c1ccc(OC)cc1OCCO)[C@@H](C(=O)OC)[C@H]2c1ccc2c(c1)OCO2` (racemic) had a melting point of 165 to 168 °C.

As to `Cn1nnnc1-c1cnc2cc(Cl)ccc2c1O`, the melting point was 350 to 351 °C. Next, `O=Cc1cc([N+](=O)[O-])ccc1Oc1ccc(F)cc1`: 125 to 126 °C. The result for `CCS(=O)(=O)c1cc2c(c(C(=O)Cl)c1)OCCO2` reads 146 to 147 °C; that for `CNC(=S)Nc1ccccc1-c1nc(C)c(-c2cccnc2)[nH]1`, 192 to 193 °C; that for `O=S1(=O)N=C(NC2CCCCC2)Nc2cc(Cl)sc21`, 282 to 284 °C. Regarding `CCCCC(CC)CNc1nc(N)nc(N)n1` (centres undefined), the melting point was 81 °C. Next, `CCCCC(NC(=O)OCc1ccccc1)P(C)(=O)O` (centres undefined): 134 to 135 °C; `CCCC(c1ccccc1)c1c(O)c2c(oc1=O)CCCCCC2` (centres undefined): 173 to 175 °C. Molecule `O=C(O)c1cc([N+](=O)[O-])cc2c1Nc1ccc(CCc3ccc(Cl)c(Cl)c3)cc1O2` had a melting point greater than 250 °C. The result for `CCOC(=O)OC1=C(c2c(C)cc(C)cc2C)C(=O)N(N(C)C)C12CCN(OC)CC2` reads 116 to 119 °C. As for `O=c1[nH]c(NCCSCc2cccs2)ncc1Cc1cccnc1`, the melting point lay in the range of 145 to 148 °C. Take `CCCCS(=O)(=O)Nc1c(C)c(C)c2c(c1C)C(c1ccc(C(C)C)cc1)CO2` (centres undefined): the melting point was 96 to 97 °C. Take `CS(=O)(=O)Nc1ccc(Cn2c(=S)n(Cc3ccc(OC(F)(F)F)cc3)c3ccccc32)cc1`: the melting point is 167 to 170 °C. The result for `CCCCc1ccc(-c2ccc(CCC3OCC(CCC)CO3)cc2)c(F)c1` (centres undefined) reads 36 °C; that for `Cc1c(C(=O)N[C@H](C)[C@](O)(Cn2cncn2)c2ccc(F)cc2F)cnn1-c1ccc(Br)cc1`, 153 to 154 °C.

The molecule `COC(=O)C(C)(C)C(Cc1ccccc1)NCc1ccccc1` (centres undefined) registered a melting point of 92 to 94 °C.

In the case of `COc1ccc(C(=O)c2ccccc2C)cc1C`, the melting point lay within 72 to 73 °C. `CCOC(=O)C(C)=NN(C)c1ccc(C(F)(F)F)cc1` gave a melting point of 71 to 72 °C.

On to `N#Cc1c(C(F)(F)F)nn(-c2c(Cl)cc(C(F)(F)F)cc2Cl)c1N`, for which the melting point fell in the range of 196 to 200 °C.

`O=C(NCN1CCN(c2ccccn2)CC1)c1ccccc1` came in with a melting point of 125 to 127 °C. As to `CCOC(=O)c1ccc(OCC(O)COc2cccc(O)c2C(C)=O)cc1` (centres undefined), the melting point lay within 104 to 106 °C. The molecule `COc1cc2c3c(c1)-c1c(O)cccc1CC3N(C)CC2` (centres undefined) displayed a melting point of 214 to 215 °C.

The molecule `CC(C)N(CCC(CCN(C(C)C)C(C)C)(C(N)=O)c1ccc(Cl)cc1)C(C)C` gave a melting point of 113 to 115 °C. Molecule `NOc1ccc2c(c1)CCCC2=O` yielded a melting point of 55.5 to 57 °C. For the molecule `COC(=O)c1ccc2c(c1)Sc1cc(F)ccc1C=C2`, the melting point was 132 to 135 °C.

Consider `CCOC(=O)C(=Cc1cccn2c([N+](=O)[O-])c(C)nc12)N=[N+]=[N-]`, for which the melting point is 196 to 198 °C.

In turn, `COc1ccc2c(c1)c(=O)n1nc(C#N)cc1n2C` had a melting point of 316 to 320 °C. Turning to `CCOC1=CC(=O)C(C(=O)OC)C(c2ccc(C)cc2)C1` (centres undefined), the melting point lay within 124 to 127 °C. `Brc1ccc2c(c1)-c1nc(-c3ccccc3)sc1CC2` had a melting point of 85 °C. `CCCCCCCCc1ncc([N+](=O)[O-])n1C` came in with a melting point of 141 °C. With `CN1CCN(C)c2cccc(Nc3ncc(Cl)c(N[C@@H]4CCCC[C@H]4NS(C)(=O)=O)n3)c2C1=O`, the melting point is 160 °C. For `Cc1nc(NC(=N)N)sc1C(=O)N1CC[C@@H](COCC(=O)O)C1`, the melting point worked out at 136 °C. With `Cn1cc(CO)c(=O)c2ccc(C(C)(C)C)cc21`, the melting point lay in the range of 146 to 149 °C.

In turn, `CC(C)(C)c1nnc(N=C2SC[C@@H]3Cc4ccccc4CN23)s1` yielded a melting point of 137 °C.

Consider `OCCSP(=S)(C1CCCCC1)C1CCCCC1`, for which the melting point fell in the range of 82 to 84 °C. In the case of `Cc1cc(C)c(C)c(COc2cccc(-c3c(-c4ccccc4)coc3C(=O)NNC(=O)c3ccc(O)c([N+](=O)[O-])c3)c2)c1C`, the melting point lay within 130 to 132 °C. On to `COc1c(C2CCN(CCCCNC(=O)c3[nH]nc(-c4ccc(C#N)cc4)c3C)CC2)ccc2c1CCCC2`, for which the melting point was determined as 222 °C. `O=C(NCc1ccccc1)c1cc2c(=O)n(Cc3ccccc3)c(=O)[nH]c2s1` had a melting point greater than 255 °C.

`CC(=O)Oc1cc(C(=O)Cl)cc(OC(C)=O)c1OC(C)=O` yielded a melting point of 108 to 110 °C.

`CC(C)Oc1ccc(OC(=O)c2ccc(C(=O)Oc3ccc(OC(C)C)cc3)cc2)cc1` registered a melting point of 192 to 194 °C. Turning to `COc1cc(C#N)ccc1Cc1c[nH]c2ccc([N+](=O)[O-])cc12`, the melting point lay within 204 to 206 °C.

The molecule `COC(=O)C1=CC2=CCC3C(CCC4(C)C(C(=O)c5ccc(O)cc5)CCC34)C2(C)CC1` (centres undefined) gave a melting point of 208 to 210 °C. `Cc1c(SCCN2CCOCC2)ccnc1CSc1nc2ccccc2s1` yielded a melting point of 91 to 93 °C. For the molecule `COC(=O)C1=C(C(F)F)NC(C)=C(C(=O)OC(C)C)C1c1cccc(Cl)c1Cl` (centres undefined), the melting point is 156 to 157 °C. Next, `COc1nsc(S(C)(=O)=O)c1C#N`: 167 to 168 °C; `CCOC(=O)N1CCN(c2ccc(-n3cnn(C(C)(C)C(O)c4ccc(Cl)cc4)c3=O)cc2)CC1` (centres undefined): 108 °C. `O=C(CCCN1CCC(C(O)(c2ccccc2)c2ccccc2)CC1)c1ccc(N2CCCCC2)cc1` yielded a melting point of 138 to 139 °C. Take `CC(C)(C)C(O)CN1CCC(CCC(=O)c2cc(Cl)c(N)[nH]c2=O)CC1` (centres undefined): the melting point stood at 211 °C. With `CCCCCCCCCCCCCCCCCCNC(=O)OCC(CO)OC(=O)NC` (centres undefined), the melting point fell in the range of 92 to 93 °C. In turn, `CCc1ccc(OC(=O)c2ccccc2)c(C(=O)c2ccc(Cl)cc2)c1` had a melting point of 79 to 81 °C. For the molecule `COc1cc2c(cc1OC)[C@@H]1CCCC[C@@H]1N=C2c1ccc([N+](=O)[O-])c([N+](=O)[O-])c1`, the melting point was 162 to 165 °C. `COc1ccc(C2CC(=O)C(C(=O)O)=CN2C2CC2)cc1` (centres undefined) gave a melting point of 137 to 139 °C. For the molecule `COc1cc2cc(-c3cc4cc(OC)c(OC)c(C(C)C)c4cc3C)c(C)cc2c(C(C)C)c1OC`, the melting point lay in the range of 215 to 216 °C. The molecule `Nc1ccc(-c2ccncc2)nc1N` registered a melting point of 252 to 254 °C.

Molecule `O=S(=O)(c1ccc(OCCCBr)cc1)c1c(-c2ccccc2)cn2ccccc12` came in with a melting point of 199 °C. In turn, `Clc1cc(Br)c2c(c1)OCCO2` showed a melting point of 56.5 to 58 °C.

In the case of `CN1CC=C(c2ccccc2Cc2ccccc2)CC1`, the melting point lay in the range of 55 to 57 °C. `CC(C)Cc1ccc(C2(C)Oc3ccc(C(=O)O)cc3O2)cc1` (single isomer, unassigned; (-)) yielded a melting point of 120 to 122 °C. In turn, `COc1cc(OC)cc(N2CCN(C(=S)Nc3nc4ccccc4nc3OC)CC2)c1` had a melting point of 141 to 143 °C. In the case of `CCC(CC)c1nn(-c2ccc(C(F)(F)F)cn2)cc1CCCOc1c(F)cccc1CC(=O)O`, the melting point lay within 102 to 103 °C.

Consider `COc1ccc(C(F)(F)F)cc1NC(=N)Nc1cccc(C(F)(F)F)c1`, for which the melting point was in the range of 45 to 47 °C. For `CC(=O)OC1C(N2CCCC2=O)c2sccc2OC1(C)C` (centres undefined), the melting point lay within 92 to 93 °C. The result for `CCOC(=O)c1cnc2n(c1=O)CC(C)CC2=NNc1ccccc1` (centres undefined) reads 165 to 167 °C.

Take `CCCc1c(OCCCCC(=O)N(CC)CC)ccc(C(C)=O)c1O`: the melting point was in the range of 95 to 97 °C.

Regarding `COC(=O)c1ccc(SC)nc1OC`, the melting point fell in the range of 71 to 75 °C. `COc1ccc(C(C)(C)C)cc1C(=O)c1ccc([N+](=O)[O-])cc1Cl` gave a melting point of 82.5 to 83.5 °C.

With `COc1ccc(C(=O)Nc2cc(NC(=O)c3cccc(O)c3)ccc2C)cc1OC`, the melting point was 182 to 183 °C. Next, `C[C@@H](O[Si](C)(C)C(C)(C)C)[C@H]1C(=O)N([Si](C)(C)C(C)(C)C)[C@@H]1CC=O`: 115 to 116 °C; `CCCCCCCCCCCCCCC(=O)C(=O)N[C@@H](CCCC)COCC(=O)OCC`: 41 to 43 °C; `COc1c(N2C[C@@H](N)[C@@H](C3CC3)C2)c(F)cc2c(=O)c(C(=O)O)cn([C@@H]3C[C@@H]3F)c12`: 211 to 214 °C. Molecule `CCCCOc1nc2ncnn2c2c1cnc1c2cnn1CC` had a melting point of 140 to 142 °C.

Turning to `CCCCCCCCCCCCCCCc1cc2cc(C(=O)O)ccc2[nH]1`, the melting point lay within 108 to 110 °C. Molecule `CCCc1nc2c(N)nc3cccnc3c2n1CCCCS(=O)(=O)NC` yielded a melting point of 174 to 175 °C. As to `O=CO[C@H]1CC[C@H](NC(=O)OCc2ccccc2)C1` (relative stereo), the melting point fell in the range of 45 to 48 °C. Molecule `CN(C(=O)c1ccc2nonc2c1)C1CCN(S(C)(=O)=O)CC1` registered a melting point of 177 to 179 °C. Molecule `CC(=O)c1c(C=O)[nH]c(-c2ccncc2)c1C` showed a melting point of 208 to 209 °C. The molecule `COC(=O)c1cccc2oc(-c3ccccc3O)nc12` yielded a melting point of 134 to 135 °C. As to `CCC(=CC(CSc1nccn1C)=NO)C(C)[N+](=O)[O-]` (centres undefined), the melting point lay in the range of 91 to 93 °C.

Consider `CCc1c(C)n(C)c(=O)n(-c2cc(OC(C)C)c(Cl)cc2F)c1=O`, for which the melting point fell in the range of 124 to 125 °C.

As for `COn1nnc2cc(Cn3ccnc3)ccc21`, the melting point turned out to be 94.3 °C. The result for `CS(=O)(=O)c1c(O)c2cccnc2n(Cc2ccccc2)c1=O` reads 155 °C; that for `O=C(O)Cc1ccc(Oc2ccc(Cl)nn2)cc1`, 124 to 127 °C. `O=C1CNc2ncc(I)cc2N1Cc1ccccc1`: the melting point was determined as 225 °C.

On to `CC(C)[Si](Oc1ccc2c(c1)CCC2=O)(C(C)C)C(C)C`, for which the melting point lay in the range of 63 to 63.5 °C. Molecule `CCC(C)CNC(=O)c1cc(NC(=O)OCc2ccccc2)cc(C(=O)NCC(C)CC)c1` (centres undefined) displayed a melting point of 130 to 132 °C.
